Results reported in patent US20260256792A1, “TREATMENT OF CHRONIC SPONTANEOUS URTICARIA BY ADMINISTERING (R)-2-[3-[4-AMINO-3-(2-FLUORO-4-PHENOXY-PHENYL)PYRAZOLO[3,4-D]PYRIMIDIN-1-YL]PIPERIDINE-1-CARBONYL]-4-METHYL-4-[4-(OXETAN-3-YL)PIPERAZIN-1-YL]PENT-2-ENENITRILE” (priority 2023, published 2026).

Tested on: moderate-to-severe chronic spontaneous urticaria (CSU)
Assay: Phase 2 CSU study: urticaria activity score over 7 days (UAS7)
Format: in vivo, human
Settings: Omalizumab-naïve
Source text: The study comprises a 12 week, randomized, double-blind, placebo-controlled, multi-center, dose-ranging efficacy and safety phase, followed by a 40 week open label extension (OLE) phase (see FIG. 1). The study consists of three phases and an optional OLE phase. […] Clinically, CSU is characterized by the spontaneous and recurrent appearance of pruritic hives. The proposed primary endpoints were the UAS7 at Week 12 in EU and EU reference countries and the ISS7 in the US. Regardless of where a participant was from, all assessments were the same. The UAS7 score is a composite score containing both the HSS7 and the ISS7. This allowed a global assessment of the two key components of urticaria: hives and itch. […] The UAS is a validated PRO measure. […] The daily UAS scores range from 0 to 6 point/day. […] Patients were to complete the UAS using the e-diary. […] The following secondary endpoints were to be analyzed using the same approach as for the primary endpoint: • Change from baseline in UAS7 at Week 4 • Change from baseline in UAS7 at Week 12 (for US and US reference countries) • Change from baseline in ISS7 at Week 12 (except US and US reference countries) • Change from baseline in HSS7 at Week 12 The following responder secondary endpoints were to be analyzed using the Cochran-Mantel-Haenszel test adjusted by region: • Proportion of participants with UAS7<6 at Week 12 • Proportion of participants with UAS7=0 at Week 12 Participants who received selected prohibited medications and/or rescue medications were to be considered as non-responders for time points after the medication usage. For other participants, all available data including those collected during the off-treatment period were to be used to determine the responder/non-responder status. Missing data were to be considered as non-responders.

SMILES: CC(C)(C=C(C#N)C(=O)N1CCC[C@@H](n2nc(-c3ccc(Oc4ccccc4)cc3F)c3c(N)ncnc32)C1)N1CCN(C2COC2)CC1 [rilzabrutinib, (R)-2-[3-[4-amino-3-(2-fluoro-4-phenoxy-phenyl)pyrazolo[3,4-d]pyrimidin-1-yl]piperidine-1-carbonyl]-4-methyl-4-[4-(oxetan-3-yl)piperazin-1-yl]pent-2-enenitrile]
- Imputed non-responder n (%), UAS7 ≤6 (400 mg QPM, Week 8): 7 (18.9) n (%)
- Non-responder n (%), UAS7 = 0 (400 mg QPM, Week 8): 36 (97.3) n (%)
- Non-responder n (%), UAS7 ≤6 (400 mg QPM, Week 8): 34 (91.9) n (%)
- OR for rilzabrutinib vs. placebo, UAS7 = 0 (400 mg QPM, Week 8): 0.477
- RRD (%) for rilzabrutinib vs. placebo, UAS7 = 0 (400 mg QPM, Week 8): −2.7 %
- RRD (%) for rilzabrutinib vs. placebo, UAS7 ≤6 (400 mg QPM, Week 8): −8.4%
- Responder n (%), UAS7 = 0 (400 mg QPM, Week 8): 1 (2.7) n (%)
- Responder n (%), UAS7 ≤6 (400 mg QPM, Week 8): 3 (8.1) n (%)
- Imputed non-responder n (%), UAS7 = 0 (400 mg QPM, Week 9): 6 (16.2) n (%)
- Imputed non-responder n (%), UAS7 ≤6 (400 mg QPM, Week 9): 6 (16.2) n (%)
- Non-responder n (%), UAS7 = 0 (400 mg QPM, Week 9): 36 (97.3) n (%)
- Non-responder n (%), UAS7 ≤6 (400 mg QPM, Week 9): 34 (91.9) n (%)
- OR for rilzabrutinib vs. placebo, UAS7 = 0 (400 mg QPM, Week 9): 0.305
- OR for rilzabrutinib vs. placebo, UAS7 ≤6 (400 mg QPM, Week 9): 0.715
- RRD (%) for rilzabrutinib vs. placebo, UAS7 = 0 (400 mg QPM, Week 9): −5.6 %
- RRD (%) for rilzabrutinib vs. placebo, UAS7 ≤6 (400 mg QPM, Week 9): −3.0%
- Responder n (%), UAS7 = 0 (400 mg QPM, Week 9): 1 (2.7) n (%)
- Responder n (%), UAS7 ≤6 (400 mg QPM, Week 9): 3 (8.1) n (%)
- Imputed non-responder n (%), UAS7 = 0 (400 mg QPM, Week 10): 6 (16.2) n (%)
- Imputed non-responder n (%), UAS7 ≤6 (400 mg QPM, Week 10): 6 (16.2) n (%)
- Non-responder n (%), UAS7 = 0 (400 mg QPM, Week 10): 36 (97.3) n (%)
- Non-responder n (%), UAS7 ≤6 (400 mg QPM, Week 10): 35 (94.6) n (%)
- OR for rilzabrutinib vs. placebo, UAS7 = 0 (400 mg QPM, Week 10): 0.219
- OR for rilzabrutinib vs. placebo, UAS7 ≤6 (400 mg QPM, Week 10): 0.357
- RRD (%) for rilzabrutinib vs. placebo, UAS7 = 0 (400 mg QPM, Week 10): −8.7 %
- RRD (%) for rilzabrutinib vs. placebo, UAS7 ≤6 (400 mg QPM, Week 10): −8.6%
- Responder n (%), UAS7 = 0 (400 mg QPM, Week 10): 1 (2.7) n (%)
- Responder n (%), UAS7 ≤6 (400 mg QPM, Week 10): 2 (5.4) n (%)
- Imputed non-responder n (%), UAS7 = 0 (400 mg QPM, Week 11): 7 (18.9) n (%)
- Imputed non-responder n (%), UAS7 ≤6 (400 mg QPM, Week 11): 7 (18.9) n (%)
- Non-responder n (%), UAS7 = 0 (400 mg QPM, Week 11): 35 (94.6) n (%)
- Non-responder n (%), UAS7 ≤6 (400 mg QPM, Week 11): 34 (91.9) n (%)
- OR for rilzabrutinib vs. placebo, UAS7 = 0 (400 mg QPM, Week 11): 0.986
- OR for rilzabrutinib vs. placebo, UAS7 ≤6 (400 mg QPM, Week 11): 0.456
- RRD (%) for rilzabrutinib vs. placebo, UAS7 ≤6 (400 mg QPM, Week 11): −8.5%
- Responder n (%), UAS7 = 0 (400 mg QPM, Week 11): 2 (5.4) n (%)
- Responder n (%), UAS7 ≤6 (400 mg QPM, Week 11): 3 (8.1) n (%)
- Imputed non-responder n (%), UAS7 = 0 (400 mg QPM, Week 12): 10 (27.0) n (%)
- Imputed non-responder n (%), UAS7 ≤6 (400 mg QPM, Week 12): 10 (27.0) n (%)
- Non-responder n (%), UAS7 = 0 (400 mg QPM, Week 12): 36 (97.3) n (%)
- Non-responder n (%), UAS7 ≤6 (400 mg QPM, Week 12): 35 (94.6) n (%)
- OR for rilzabrutinib vs. placebo, UAS7 = 0 (400 mg QPM, Week 12): 0.219
- OR for rilzabrutinib vs. placebo, UAS7 ≤6 (400 mg QPM, Week 12): 0.438
- RRD (%) for rilzabrutinib vs. placebo, UAS7 = 0 (400 mg QPM, Week 12): −8.7 %
- RRD (%) for rilzabrutinib vs. placebo, UAS7 ≤6 (400 mg QPM, Week 12): −6.1%
- Responder n (%), UAS7 = 0 (400 mg QPM, Week 12): 1 (2.7) n (%)
- Responder n (%), UAS7 ≤6 (400 mg QPM, Week 12): 2 (5.4) n (%)
- Imputed non-responder n (%), UAS7 = 0 (400 mg TID, Week 1): 0 n (%)
- Imputed non-responder n (%), UAS7 ≤6 (400 mg TID, Week 1): 0 n (%)
- Non-responder n (%), UAS7 = 0 (400 mg TID, Week 1): 34 (97.1) n (%)
- Non-responder n (%), UAS7 ≤6 (400 mg TID, Week 1): 27 (77.1) n (%)
- OR for rilzabrutinib vs. placebo, UAS7 ≤6 (400 mg TID, Week 1): 4.809
- RRD (%) for rilzabrutinib vs. placebo, UAS7 = 0 (400 mg TID, Week 1): 0.2 %
- RRD (%) for rilzabrutinib vs. placebo, UAS7 ≤6 (400 mg TID, Week 1): 15.9 %
- Responder n (%), UAS7 = 0 (400 mg TID, Week 1): 1 (2.9) n (%)
- Responder n (%), UAS7 ≤6 (400 mg TID, Week 1): 8 (22.9) n (%)
- Imputed non-responder n (%), UAS7 = 0 (400 mg TID, Week 2): 0 n (%)
- Imputed non-responder n (%), UAS7 ≤6 (400 mg TID, Week 2): 0 n (%)
- Non-responder n (%), UAS7 = 0 (400 mg TID, Week 2): 31 (88.6) n (%)
- Non-responder n (%), UAS7 ≤6 (400 mg TID, Week 2): 27 (77.1) n (%)
- OR for rilzabrutinib vs. placebo, UAS7 = 0 (400 mg TID, Week 2): 4.736
- OR for rilzabrutinib vs. placebo, UAS7 ≤6 (400 mg TID, Week 2): 4.455
- RRD (%) for rilzabrutinib vs. placebo, UAS7 = 0 (400 mg TID, Week 2): 8.3 %
- RRD (%) for rilzabrutinib vs. placebo, UAS7 ≤6 (400 mg TID, Week 2): 15.3 %
- Responder n (%), UAS7 = 0 (400 mg TID, Week 2): 4 (11.4) n (%)
- Responder n (%), UAS7 ≤6 (400 mg TID, Week 2): 8 (22.9) n (%)
